According to patent US8796302B2 (priority 2004, dated 2014):

Columns and labels:
[1] = test system: TH-IR (dopaminergic) neurons in mesencephalic neuron-glia cultures; assay: TH-IR neuron count and morphology in LPS-treated neuron-glia cultures; assay type: cell-based, rat; settings: LPS 5 ng/ml
TNFα = TNFα production in neuron-glia cultures of PHOX+/+ and PHOX−/− mice; assay type: cell-based, mouse; settings: LPS 5 ng/ml
Protocol: (§1) Neurotoxicity was assessed by DA uptake as described in Example 1. TNFα production was measured by ELISA and iROS was determined by DCFDA as in Example 5. Results are expressed as a percentage of the control culture in FIG. 7A, pg/ml in FIG. 7B, and difference from control in FIG. 7C, respectively, and are the mean±S.E.M. of five individual experiments with triplicates in each experiment. *, P<0.05 compared with LPS culture.
(§2) The rat and mouse ventral mesencephalic neuron-glia cultures were prepared as in Example 1. […] DA neurotoxicity was measured by using the [^3H] DA uptake assay as in Example 1. The data are expressed as the percent of the control cultures and are the mean±SEM. The release of TNFα was measured with a commercially available enzyme-linked immunosorbent assay kit. *P<0.05, **P<0.01, compared to control. The amount of TNFα was measured as in Example 2.

[2] = test system: dopaminergic neurons in rat primary mesencephalic neuron-glia cultures; assay: [3H]DA uptake in LPS-treated mesencephalic neuron-glia cultures; assay type: cell-based; settings: LPS 5 ng/ml
Protocol: Neuron-glia cultures were prepared from the ventral mesencephalic tissues of embryonic day 13-14 Fisher F344 rats or day 12-13 wild-type C57BL/6J (gp91phox^+/+) mice. Dissociated cells were seeded at 1×10^5/well and 5×10^5/well to poly-D-lysine-coated 96-well and 24-well plates, respectively. Cells were maintained at about 37° C. in a humidified atmosphere of 5% CO2 and 95% air, in minimal essential medium (MEM) containing 10% fetal bovine serum (FBS), 10% horse serum (HS), 1 gm/l glucose, 2 mM L-glutamine, 1 mM sodium pyruvate, 100 μM nonessential amino acids, 50 U/ml penicillin, and 50 μg/ml streptomycin. Seven-day-old cultures were used for treatment.
Dextromethorphan (obtained from Sigma-Aldrich (St. Louis, Mo.) as dextromethorphan hydrobromide) was freshly prepared as a stock solution (1 mM) in ddH2O and sterile-filtered right before use. For treatment of the cultures, the DM was serially diluted (10×) with fresh culture medium containing 2% of fetal bovine and horse serum. The neuron-glia cultures were pretreated with 10^−5-10^−17M DM 30 minutes prior to treatment with 10 ng/ml of LPS.
Seven days after treatment, the degeneration of dopaminergic neurons was assessed by [^3H]-dopamine (DA) uptake assays. The [^3H]-DA uptake assays were performed as follows. Cultures were washed twice with warm Krebs-Ringer buffer (KRB, 16 mM sodium phosphate, 119 mM NaCl, 4.7 mM KCl, 1.8 mM CaCl2, 1.2 mM MgSO4, 1.3 mM EDTA, and 5.6 mM glucose; pH7.4) and then incubated for about 20 minutes at about 37° C. with 1 μM [^3H]-DA in KRB in order to allow for the uptake of DA. Afterwards, the cultures were washed (three times) with ice-cold KRB and the cells were collected in 1 N NaOH. Radioactivity was determined by liquid scintillation counting.
(§3) This example tests whether or not post-treatment with DM is still neuroprotective in LPS-induced neurotoxicity. Neuron-glia co-cultures as prepared in Example 1 were first treated with LPS (20 ng/ml) for twelve hours, and then LPS was removed by removing the media from the cultures and washing twice with PBS. Different concentrations of DM (10^−5, 10^−10, and 10^−14 M) were then added to the cultures and incubation was continued for another 6 or 7 days. The DA uptake and the superoxide production were measured as in Example 1 and 5.
Neuron-glia cell cultures were prepared as in Example 1, and pretreated with the various peptide fragments of Table 1 (peptide fragments were obtained from BACHEM) for 30 minutes followed by addition of 5 ng/ml of LPS. DA neurotoxicity was measured as an Example 1 at 7 days post treatment.
DA neurotoxicity was measured at 7 days post treatment as in Example 1. Dopaminergic neuronal death was determined at 7 days post treatment using immunocytochemical staining as in Example 2.
Neuron-glia cultures were prepared from the ventral mesencephalic tissues of embryonic day 13-14 rats. Dissociated cells were seeded at 1×10^5/well and 5×10^5/well to poly-D-lysine-coated 96-well and 24-well plates, respectively.

[3] = test system: intracellular reactive oxygen species; assay: Intracellular ROS (DCFH oxidation) after LPS; assay type: cell-based, rat; settings: 10^−14 M, enriched-microglia cultures, LPS 10 ng/ml
Protocol: The production of intracellular reactive oxygen species was measured by DCFH oxidation. The DCFH-DA (Molecular Probes, Eugene, Oreg.) reagent passively diffuses into cells in which it is hydrolyzed by intracellular esterase to liberate 2′-7′-dichlorofluoressein which, during reaction with oxidizing species, yields a highly fluorescent compound 2′-7′-dichlorofluorescein (DCF) that is trapped inside the cell. For each measurement, a fresh stock solution of CM-H2-DCFDA (5 mM) was prepared in dimethylsulfoxide. CM-H2-DCFDA, diluted to a final concentration of 1 μM in phenol red-free HBSS containing 2% FBS and 2% HS, was added to cultures and incubated for about 30 min at about 37° C. After washing two times with warm HBSS, vehicle or stimulators in HBSS were added to cultures. After incubation for about 30 min at about 37° C., fluorescence intensity was measured at 485 nm for excitation and 530 nm for emission using a SpectraMax Gemini XS fluorescence microplate reader (Molecular Devices).
Assay of intracellular ROS is performed as follows. 5-(and −6)-Chloromethyl-2′,7′-dichlorodihydrofluorescein diacetate (CM-H2-DCFDA) (Molecular Probes, Eugene, Oreg.), a chloromethyl derivative of H2-DCFDA, passively diffuses into cells in which it is hydrolyzed by intracellular esterases to liberate 2′-7′-dichlorofluorescein (DCF) which, during reaction with oxidizing species, yields a highly fluorescent compound that is trapped inside the cell. […] Cells were seeded at 1×10^5/well in 96-well plates for one day followed by treatment with 0.6 mM or 1.2 mM VPA for 24 h. The cultures were used for the assay of intracellular ROS.
After washing two times with warm Hank's balanced salt solution (HBSS), CM-H2-DCFDA, diluted to a final concentration of 1 μM in phenol red-free HBSS, was added to cultures and incubated for 30 min at 37° C. Then cultures were added with 0.6 or 1.2 mM VPA in HBSS again for 30 min and followed the treatment with 100 ng/ml LPS for 2 hours at 37° C., fluorescence intensity was measured at 485 nm for excitation and 530 nm for emission using a SpectraMax Gemini XS fluorescence microplate reader (Molecular Devices, Sunnyvale, Calif.).

superoxide = assay: Superoxide release (SOD-inhibitable cytochrome c reduction) after LPS; assay type: cell-based, rat; settings: 10^−14 M, enriched-microglia cultures, LPS 10 ng/ml
Protocol: The release of superoxide was determined by measuring the superoxide dismutase (SOD)-inhibitable reduction of cytochrome c. To measure the immediate release of superoxide from microglia-enriched or neuron-glia after stimulation, cultures grown in 96-well plates were switched to phenol red-free HBSS (50 μl/well). To each well was added 50 μl of HBSS containing vehicle or DM. The cultures were then incubated at about 37° C. for about 30 min followed by 50 μl of ferricytochrome c (100 μM) in HBSS, with and without 600 U/ml SOD, 50 μl of vehicle or LPS in HBSS. The absorbance at 550 nm was read with a SpectraMax Plus microplate spectrophotometer (Molecular Devices, Sunnyvale, Calif.).
as §3, with “5. Results are expressed as a percentage of the control cultures and are the mean±S.E.M of three to six experiments with triplicates in each experiment. ##, P<0.01 compared with control culture; *, P<0.05 compared with the LPS-treated culture.” for “5.”
Primary enriched-microglia cultures were prepared as in Example 1. […] The intracellular ROS concentrations and superoxide amounts were measured as in Example 5. The data are expressed as the percent of the control cultures and are the mean±SEM of three experiments performed in triplicate. *P<0.05, **P<0.01, compared to control.

gp91/p22 = biological target: T1, gp91/p22 (Homo sapiens, UniProt P04839); assay: [3H]naloxone binding to COS-7 cells transfected with gp91/p22; settings: COS-7 gp91/p22 cells, [3H]naloxone 2 nM, displaced with 10 μM cold naloxone
T1 construct: expressed in transfected cells; host or cells: COS-7 (stably transfected); intact cells or membrane preparations
T1 sequence (P04839 whole entry): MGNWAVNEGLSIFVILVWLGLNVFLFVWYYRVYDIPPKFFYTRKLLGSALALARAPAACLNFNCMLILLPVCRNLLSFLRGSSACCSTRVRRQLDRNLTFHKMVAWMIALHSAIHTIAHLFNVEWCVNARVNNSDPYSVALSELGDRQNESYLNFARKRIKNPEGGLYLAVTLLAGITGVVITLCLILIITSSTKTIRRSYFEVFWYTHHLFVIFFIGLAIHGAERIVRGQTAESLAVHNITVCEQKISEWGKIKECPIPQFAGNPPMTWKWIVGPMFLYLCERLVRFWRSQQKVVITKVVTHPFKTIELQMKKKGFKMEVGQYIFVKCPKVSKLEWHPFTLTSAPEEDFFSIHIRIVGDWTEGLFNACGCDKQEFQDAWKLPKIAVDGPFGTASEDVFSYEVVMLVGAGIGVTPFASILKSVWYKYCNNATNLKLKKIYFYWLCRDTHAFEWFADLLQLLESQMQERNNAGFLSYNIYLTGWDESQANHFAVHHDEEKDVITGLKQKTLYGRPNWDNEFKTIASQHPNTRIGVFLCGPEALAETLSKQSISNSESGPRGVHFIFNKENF
T1 sequence (P13498 whole entry partner): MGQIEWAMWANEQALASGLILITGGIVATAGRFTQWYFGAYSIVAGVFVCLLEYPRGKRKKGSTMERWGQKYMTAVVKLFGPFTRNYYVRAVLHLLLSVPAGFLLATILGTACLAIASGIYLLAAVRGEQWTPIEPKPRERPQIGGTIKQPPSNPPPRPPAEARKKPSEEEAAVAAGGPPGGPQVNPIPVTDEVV
Protocol: Binding affinities of naloxone for COS-7 cells transfected with gp91/p22 was determined using either [^3H]-(+)Naloxone or [^3H]-(−)Naloxone (2 nM; PerkinEhner Life Sciences) as ligands and displaced with 10 μM of cold (−) Naloxone in HBBS containing 0.1% (W/V) fatty acids free albumin (lot B22558, Calbiochem). COS-7 cells transfected with gp91/p22 and COS-7 cells that were not transfected (WT) were detached using Versene (1:5000, GibcoBRL, Life technologies). For intact cell assays, after washing twice with HBSS, cells were transferred to micro centrifuge tubes at 10^6 cells per tube.
To acquire membrane preparations, cells were lysed in buffer ([…] Tris, pH=7.4, 2 mM EDTA, 10 μg/ml CLAP) and homogenized. Lysate was transferred to a 50 ml conical tube, where there were centrifuged at 250 g for about 10 minutes at about 4 C. The supernatant was then transferred to another tube and spun at 100,000 G for about 90 minutes. The supernatant was then discarded and the protein pellet was re-suspended in 2 ml of lysis buffer. […]
All competition reactions of either intact cells or membrane preparations were allowed to proceed at 4° C. […] After washing with HBSS four times, the filters were collected and radioactivity retained on the filters was determined by liquid Scintillation counting. All values are expressed as percentages relative to the binding capacity of the wild type control.

[4] = test system: dopaminergic neurons in PHOX^+/+ and PHOX^−/− mouse neuron-glia cultures; assay: [3H]DA uptake in neuron-glia cultures of PHOX+/+ and PHOX−/− mice; assay type: cell-based; settings: PHOX−/− cultures, 10^−13-10^−14 M, LPS 5 ng/ml
Protocol: To further study the role of ROS in DM-elicited neuroprotection, neuron-glia cultures were prepared from NADPH oxidase-deficient (PHOX^−/−) and wild-type (PHOX^+/+) mice.
as §1, §2

SMILES: C=CCN1CC[C@]23c4c5ccc(O)c4O[C@H]2C(=O)CC[C@@]3(O)[C@H]1C5 [naloxone, (5α)-4,5-Epoxy-3,14-dihydroxy-17-(2-propenyl)morphinan-6-one]
- concentration of peak protection against LPS-induced DA neuron cell loss ([1]; 10^−12-10^−16 M tested): 10^−14 M
- LPS-induced damage of TH immuno-reactive neurons ([1]; 10^−14 M): protected TH immuno-reactive neurons from LPS-induced damage
- TNFα reduction in response to LPS (TNFα; PHOX−/− mice, 30 min pretreatment): failed to show any TNFα reduction
- TNFα reduction in response to LPS (TNFα; control (PHOX+/+) mice, 10^−14 M): showed a reduction of TNFα
- concentration of greatest level of protection (DA uptake) ([2]; 10^−12-10^−16 M tested): 10^−14 M
- enhancement of [3H]DA uptake after exposure to LPS ([2]; 30 min pretreatment, 7 days): approximately 35%
- reduction of intracellular ROS concentrations [3]: 65%
- microglial superoxide response (superoxide): nearly control levels
- binding capacity relative to control COS-7 cells (gp91/p22): 150-180%
- neuroprotection (DA uptake) [4]: failed to show neuroprotection
